Measured values published in ChEMBL document CHEMBL1201862, “PubChem BioAssay data set” (2004).
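All cell lines were grown in 96-well plates and treated with compound for 48 hours. Abbreviation: GI50, concentration required for 50% inhibition of growth.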 Calls of active or inactive are those of the source. Rule as the data show it: active = GI50 up to about 1.1 µM and inactive = higher.

Experiments:
Experiment in all cases: DTP human tumour cell line panel, 48 h
[1] = tested on: HOP-92
[2] = tested on: DLD-1
[3] = tested on: M14
[4] = tested on: SNB-78
[5] = tested on: DMS-114
[6] = tested on: TK-10
[7] = tested on: M19-MEL
[8] = tested on: DMS-273
[9] = tested on: A498
[10] = tested on: KM-20L2
[11] = tested on: XF498
[12] = tested on: NCI-H226
[13] = tested on: LXFL 529
[14] = tested on: SNB-75
[15] = tested on: CAKI-1
[16] = tested on: SK-MEL-5
[17] = tested on: NCI/ADR-RES
[18] = tested on: MCF7

Measured: GI50

N#CCCOCN(CO)c1nc(N(CO)COCCC#N)nc(N(CO)COCCC#N)n1
inactive: [1] 23.4 µM | [2] 26.7 µM | [3] 21 µM | [4] 79.4 µM | [5] 24.3 µM | [6] 34 µM | [7] 23.8 µM | [8] 18.7 µM | [9] > 100 µM | [10] 25.9 µM | [11] 17.5 µM | [12] 22.7 µM | [13] 17 µM

C=C(c1ccccc1)c1cc2c(=O)[nH]ccc2n1C
inactive: [1] 14.2 µM | [14] 11.9 µM | [2] 31.9 µM | [3] 29.2 µM | [4] 48.5 µM | [5] 19.1 µM | [6] 55.3 µM | [7] 38.6 µM | [15] 33.2 µM | [8] 27.5 µM | [10] 23.3 µM | [16] 26 µM | [11] 30.5 µM | [13] 35.6 µM

COCCOCOc1ccc(OCc2ccccc2)cc1
inactive: [1] > 100 µM | [17] > 82.8 µM | [2] > 100 µM | [4] > 100 µM | [5] 40.9 µM | [7] > 63.4 µM | [15] 2.25 µM | [8] > 94.6 µM | [9] > 58.5 µM | [10] > 100 µM | [18] > 35.9 µM | [16] 35 µM | [11] > 100 µM | [12] > 100 µM

COc1cc(Cc2ccc3c(c2C#N)N(C)c2ccccc2S3)cc(OC)c1OC
inactive: [1] 48.5 µM | [2] > 100 µM | [3] > 100 µM | [4] > 100 µM | [5] 14.6 µM | [6] > 100 µM | [7] 52.4 µM | [8] 33.4 µM | [9] 21.8 µM | [10] 36.1 µM | [11] 30.1 µM | [12] 62.4 µM | [13] 6.87 µM

COc1ccc(C2ON(c3ccccn3)CC=C2C)cc1 (configuration not stated)
inactive: [14] > 100 µM | [2] > 100 µM | [3] > 100 µM | [4] > 100 µM | [5] > 100 µM | [7] > 100 µM | [15] > 100 µM | [8] > 100 µM | [10] > 100 µM | [16] > 100 µM | [11] > 100 µM | [12] > 100 µM | [13] > 100 µM
